# Test results as given in patent publication US9133158B2, “Bicyclic dihydroisoquinoline-1-one derivatives” (Hoffmann-La Roche Inc., priority 2011, dated 2015).
# Experiments:
# [1] = biological target: T1, human CYP11B1 (Homo sapiens, UniProt P15538); assay: G-402 cellular enzyme assay, human CYP11B1 (cortisol release, HTRF); format: cell-based; conditions: G-402 cells, 1 μM Deoxycortisol
# T1 construct: expressed in transfected cells
# T1 sequence (P15538 25-503): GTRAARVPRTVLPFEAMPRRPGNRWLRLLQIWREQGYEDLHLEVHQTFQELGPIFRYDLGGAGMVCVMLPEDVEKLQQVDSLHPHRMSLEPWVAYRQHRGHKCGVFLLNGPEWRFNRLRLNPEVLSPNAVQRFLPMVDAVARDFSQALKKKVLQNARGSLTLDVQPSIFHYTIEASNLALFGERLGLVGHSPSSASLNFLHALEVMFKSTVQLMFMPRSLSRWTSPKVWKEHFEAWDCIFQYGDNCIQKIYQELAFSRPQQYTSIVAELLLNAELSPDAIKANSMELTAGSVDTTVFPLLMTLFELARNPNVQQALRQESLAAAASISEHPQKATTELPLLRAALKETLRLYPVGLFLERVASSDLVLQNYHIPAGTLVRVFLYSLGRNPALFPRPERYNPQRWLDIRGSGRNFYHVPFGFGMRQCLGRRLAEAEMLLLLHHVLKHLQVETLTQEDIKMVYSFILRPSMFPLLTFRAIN
# Procedure, shortened: (§1)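 G-402 cells stably expressing human CYP11B1 or CYP11B2, in DMEM/F12 with 2.5% charcoal-treated FCS, were incubated 16 h with test compound and substrate (1 μM 11-deoxycortisol for CYP11B1; 1 μM deoxycorticosterone for CYP11B2). Cortisol or aldosterone in supernatant was quantified by HTRF; EC50 from 4-parameter MMF fit.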
# [2] = biological target: T2, human CYP11B2 (Homo sapiens, UniProt P19099); assay: G-402 cellular enzyme assay, human CYP11B2 (aldosterone release, HTRF); format: cell-based; conditions: G-402 cells, 1 μM Deoxycorticosterone
# T2 construct: expressed in transfected cells
# T2 sequence (P19099 25-503): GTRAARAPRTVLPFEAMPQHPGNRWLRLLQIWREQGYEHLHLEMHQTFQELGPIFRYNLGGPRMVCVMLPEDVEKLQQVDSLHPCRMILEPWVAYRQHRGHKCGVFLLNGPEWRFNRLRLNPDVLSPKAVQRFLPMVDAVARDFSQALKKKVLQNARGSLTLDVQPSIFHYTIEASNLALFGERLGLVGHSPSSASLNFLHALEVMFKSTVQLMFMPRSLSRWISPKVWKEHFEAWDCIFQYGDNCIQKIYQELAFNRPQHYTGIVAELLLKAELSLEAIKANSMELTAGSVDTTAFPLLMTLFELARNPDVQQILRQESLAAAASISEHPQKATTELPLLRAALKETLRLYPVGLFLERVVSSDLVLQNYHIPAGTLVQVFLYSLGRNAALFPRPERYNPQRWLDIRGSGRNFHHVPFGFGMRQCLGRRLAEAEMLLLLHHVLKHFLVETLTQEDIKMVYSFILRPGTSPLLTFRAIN
# Procedure, shortened: as §1
# [3] = rat; FAD286 after 4 weeks, spironolactone at 4 and 8 weeks of treatment; cited from earlier work
# [4] = biological target: CYP11B2 (Homo sapiens, UniProt P19099); conditions: patients with primary aldosteronism, oral; cited from earlier work
EC50 [1],EC50 [2],Compound,plasma aldosterone [3],circulating aldosterone levels [4]
298 nM,1.8 nM,"CC1(C)c2cc(Cl)ccc2C(=O)N1c1cncc(N2CCN(S(C)(=O)=O)CC2)c1 [Example 457, 5-Chloro-2-[5-(4-methanesulfonyl-piperazin-1-yl)-pyridin-3-yl]-3,3-dimethyl-2,3-dihydroisoindol-1-one]",,
516 nM,12.3 nM,"CC(=O)N1CCC(c2cncc(N3C(=O)c4ccc(Cl)cc4C3(C)C)c2)C1 (stereo not drawn) [Example 460, 2-[5-(1-Acetyl-pyrrolidin-3-yl)-pyridin-3-yl]-5-chloro-3,3-dimethyl-2,3-dihydro-isoindol-1-one]",,
1650 nM,2.8 nM,"CCS(=O)(=O)N1CCCC(c2cncc(N3C(=O)c4ccc(Cl)cc4C3(C)C)n2)C1 (stereo not drawn) [Example 464, 5-Chloro-2-[6-(1-ethanesulfonyl-piperidin-3-yl)-pyrazin-2-yl]-3,3-dimethyl-2,3-dihydro-isoindol-1-one]",,
2270 nM,66.9 nM,"CC1(C)c2cc(Cl)ccc2C(=O)N1c1cncc(C2CCCN(S(C)(=O)=O)C2)n1 (stereo not drawn) [Example 465, 5-Chloro-2-[6-(1-methanesulfonyl-piperidin-3-yl)-pyrazin-2-yl]-3,3-dimethyl-2,3-dihydro-isoindol-1-one]",,

# Continued, compound first:
Compound,EC50 [1],EC50 [2],plasma aldosterone [3],circulating aldosterone levels [4]
"CCS(=O)(=O)N1CCN(c2cncc(N3C(=O)c4ccc(Cl)cc4C3(C)C)c2)CC1 [Example 458, 5-Chloro-2-[5-(4-ethanesulfonyl-piperazin-1-yl)-pyridin-3-yl]-3,3-dimethyl-2,3-dihydroisoindol-1-one]",351 nM,1.7 nM,,
"CC1(C)c2cc(Cl)ccc2C(=O)N1c1cncc(N2CCN(C(=O)c3ncccc3Cl)CC2)c1 [Example 459, 5-Chloro-2-{5-[4-(3-chloro-pyridine-2-carbonyl)-piperazin-1-yl]-pyridin-3-yl}-3,3-dimethyl-2,3-dihydro-isoindol-1-one]",594 nM,5.6 nM,,
"CC(=O)N1CCC(c2cncc(N3C(=O)c4ccc(Cl)cc4C3(C)C)c2)CC1 [Example 461, 2-(1′-Acetyl-1′,2′,3′,4′,5′,6′-hexahydro-[3,4′]bipyridinyl-5-yl)-5-chloro-3,3-dimethyl-2,3-dihydro-isoindol-1-one]",361 nM,4 nM,,
"CC(=O)N1CCCC(c2cncc(N3C(=O)c4ccc(Cl)cc4C3(C)C)n2)C1 (stereo not drawn) [Example 462, 2-[6-(1-Acetyl-piperidin-3-yl)-pyrazin-2-yl]-5-chloro-3,3-dimethyl-2,3-dihydro-isoindol-1-one]",720 nM,32.6 nM,,
"CCC(=O)N1CCCC(c2cncc(N3C(=O)c4ccc(Cl)cc4C3(C)C)n2)C1 (stereo not drawn) [Example 463, 5-Chloro-3,3-dimethyl-2-[6-(1-propionyl-piperidin-3-yl)-pyrazin-2-yl]-2,3-dihydro-isoindol-1-one]",932 nM,47.1 nM,,
N#Cc1ccc([C@H]2CCCc3cncn32)cc1 [FAD286],,,reduced,
N#Cc1ccc([C@H]2CCc3cncn32)c(F)c1 [LCI699],,,,significantly lower
CC(=O)S[C@@H]1CC2=CC(=O)CC[C@]2(C)[C@H]2CC[C@@]3(C)[C@@H](CC[C@@]34CCC(=O)O4)[C@H]12 [spironolactone],,,increased,
